Data published in patent US9981972B2, “N-hydroxy bicyclic hydantoin carbamates as tools for identification of serine hydrolase targets” (ABIDE THERAPEUTICS, INC., priority 2014, dated 2018).
Entries after “also recorded” stand apart in the source; their conditions may differ.

Columns and labels:
Format in all cases: biochemical
[1] = test system: FP-sensitive SHs in the mouse brain membrane proteome; test: Gel-based competitive ABPP in vitro, mouse brain membrane proteome, anti-targets; conditions: for Anti-target(s) 0.1 μM: SHs with at least 50% inhibition at 0.1 μM compound; for Anti-target(s) 1 μM: SHs with at least 50% inhibition at 1 μM compound; for Anti-target(s) 10 μM: SHs with at least 50% inhibition at 10 μM compound; for Anti-target(s) 100 μM: SHs with at least 50% inhibition at 100 μM compound
Protocol: (§1) Assay Overview: The purpose of this assay was to determine whether test compounds can inhibit LYPLA1 and LYPLA2 in a complex proteomic lysate and to assess anti-target inhibition using a competitive activity-based proteomic profiling (ABPP) assay. In this assay, a complex proteome endogenously expressing LYPLA1/2 was incubated with test compound followed by reaction with a rhodamine-conjugated fluorophosphonate (FP-Rh) serine-hydrolase specific activity-based probe. The reaction products were separated by SDS-PAGE and visualized in-gel using a flatbed fluorescence scanner. The percentage activity remaining was determined by measuring the integrated optical density of the bands. […] Percent inhibition was calculated relative to a DMSO (no compound) control.
(§2) Protocol Summary: Mouse brain membrane proteome (50 μL reaction volume, 1 mg/mL in DPBS) was treated with 0.1-100 μM test compound (1 μL of a 50× stock in DMSO) for 30 minutes at 37° C. FP-Rh (1 μL of 50× stock in DMSO, Thermo #88318) was added to a final concentration of 2 μM. The reactions were incubated for 30 minutes at 25° C., quenched with 16 μL 4×SDS-PAGE loading buffer (reducing), separated by SDS-PAGE and visualized by in-gel fluorescent scanning. The percentage activity remaining was determined by measuring the integrated optical density of the bands relative to a DMSO-only (no compound) control. Assay Cutoff: Compounds with ≥50% inhibition of targets at 1 μM test compound concentration were considered active.
(§3) N-Hydroxy bicyclic hydantoin carbamates (Compounds 1-20) listed in Table 1 were subjected to gel-based competitive ABPP screening to assess SH reactivity against more than 20 FP-sensitive SHs visible by 1D SDS-PAGE separation and fluorescent detection in the mouse brain proteome (see FIG. 1). […] Compound treatment ([…], 30 minutes) was followed by labeling with SH-specific ABPP probe FP-Rh (2 μM, 30 minutes), 1D-SDS-PAGE, and in-gel fluorescent visualization of FP-labeled proteins. Assignment of LYPLA1/2 bands was based on correlation of molecular weights, expression and inhibition profiles with LC-MS/MS data and recombinant enzyme expression. Proteins were listed as anti-targets if at least 50% inhibition was observed as quantified relative to the DMSO control.
(§4) Compounds 1-20 were subjected to gel-based competitive ABPP profiling to assess potency and selectivity against several dozen FP-sensitive SHs in the mouse brain membrane proteome, which endogenously expresses LYPLA1 and LYPLA2, as well a diversity of potential SH anti-targets. Compounds were tested at 100 μM, 10 μM, 1 μM, and/or 0.1 μM compound concentration.

LYPLA2 = target: T1, LYPLA2 (Mus musculus, UniProt Q9WTL7); test: Gel-based competitive ABPP in vitro, mouse brain membrane proteome; conditions: 30 min, one replicate; for inhibition at 0.1 µM: 0.1 μM compound, read-out: LYPLA2 % INH 0.1 μM; for inhibition at 1 µM: 1 μM compound, read-out: LYPLA2 % INH 1 μM; for inhibition at 10 µM: 10 μM compound, read-out: LYPLA2 % INH 10 μM; for inhibition at 100 µM: 100 μM compound, read-out: LYPLA2 % INH 100 μM
T1 construct: a complex proteome endogenously expressing LYPLA1/2 was incubated with test compound; from tissue; host or cells: mouse brain, membrane fraction
Protocol: as §1, §2, §3, §4

LYPLA1 = target: T2, LYPLA1 (Mus musculus, UniProt P97823); test: as above; conditions: 30 min, one replicate; for inhibition at 0.1 µM: 0.1 μM compound, read-out: LYPLA1 % INH 0.1 μM; for inhibition at 1 µM: 1 μM compound, read-out: LYPLA1 % INH 1 μM; for inhibition at 10 µM: 10 μM compound, read-out: LYPLA1 % INH 10 μM; for inhibition at 100 µM: 100 μM compound, read-out: LYPLA1 % INH 100 μM
T2 construct: a complex proteome endogenously expressing LYPLA1/2 was incubated with test compound; from tissue; host or cells: mouse brain, membrane fraction
Protocol: as §1, §2, §3, §4

T1 sequence (Q9WTL7 whole entry): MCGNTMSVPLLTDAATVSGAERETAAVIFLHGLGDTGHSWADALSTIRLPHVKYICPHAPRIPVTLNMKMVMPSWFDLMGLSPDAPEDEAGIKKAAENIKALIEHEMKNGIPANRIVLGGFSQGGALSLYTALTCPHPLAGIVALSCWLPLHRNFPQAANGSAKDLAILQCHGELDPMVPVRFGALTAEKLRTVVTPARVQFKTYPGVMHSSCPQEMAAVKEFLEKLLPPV
T2 sequence (P97823 whole entry): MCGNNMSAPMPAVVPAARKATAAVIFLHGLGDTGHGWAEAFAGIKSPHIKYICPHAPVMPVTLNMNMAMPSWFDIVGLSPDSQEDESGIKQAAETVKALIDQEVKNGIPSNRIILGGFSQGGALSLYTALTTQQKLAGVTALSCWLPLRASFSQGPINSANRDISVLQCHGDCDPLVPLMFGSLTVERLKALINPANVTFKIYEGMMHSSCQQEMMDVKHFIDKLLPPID

inhibition at 0.1 µM (LYPLA2) [%] | inhibition at 1 µM (LYPLA2) [%] | inhibition at 10 µM (LYPLA2) [%] | inhibition at 100 µM (LYPLA2) [%] | inhibition at 0.1 µM (LYPLA1) [%] | inhibition at 1 µM (LYPLA1) [%] | inhibition at 10 µM (LYPLA1) [%] | inhibition at 100 µM (LYPLA1) [%] | SMILES | Anti-target(s) 0.1 μM [1] | Anti-target(s) 1 μM [1] | Anti-target(s) 10 μM [1] | Anti-target(s) 100 μM [1]
0 | 10 | 75 | 100 | 0 | 10 | 100 | 100 | CCN(C(=O)C1CCN(C(=O)ON2C(=O)C3CN(C(=O)OC(C)(C)C)CCN3C2=O)CC1)c1ccccc1 (stereo not drawn) [Compound 20, tert-butyl 2-(4-(ethyl(phenyl)carbamoyl)piperidine-1-carbonyloxy)-1,3-dioxohexahydroimidazo[1,5-a]pyrazine-7(1H)-carboxylate] | ABHD6 | ABHD6 | ABHD6 | ABHD6
0 | 25 | 95 | 100 | 0 | 25 | 95 | 100 | O=C(ON1C(=O)C2CN(CCc3ccccc3)CCN2C1=O)N1CCC(CCc2ccc(Cl)cc2)CC1 (stereo not drawn) [Compound 12, 1,3-dioxo-7-phenethylhexahydroimidazo[1,5-a]pyrazin-2(3H)-yl 4-(4-chlorophenethyl)piperidine-1-carboxylate] | ABHD6 | ABHD6 | FAAH,; also recorded: ABHD4,; also recorded: MAGL,; also recorded: ABHD6 | FAAH,; also recorded: ABHD4,; also recorded: MAGL,; also recorded: ABHD6
0 | 0 | 0 | 25 | 0 | 0 | 10 | 50 | CC(C)(C)OC(=O)N1CCN2C(=O)N(OC(=O)N3CCC(C(=O)Nc4ccccc4)CC3)C(=O)C2C1 (stereo not drawn) [Compound 19, tert-butyl 1,3-dioxo-2-(4-(phenylcarbamoyl)piperidine-1-carbonyloxy)hexahydroimidazo[1,5-a]pyrazine-7(1H)-carboxylate] | ABHD6 | ABHD6 | ABHD6 | FAAH,; also recorded: ABHD6
25 | 95 | 100 | 100 | 25 | 95 | 100 | 100 | O=C(Cc1ccccc1)N1CCN2C(=O)N(OC(=O)N3CCC(CCc4ccc(Cl)cc4)CC3)C(=O)C2C1 (stereo not drawn) [Compound 6, 1,3-dioxo-7-(2-phenylacetyl)hexahydroimidazo[1,5-a]pyrazin-2(3H)-yl 4-(4-chlorophenethyl)piperidine-1-carboxylate] | ABHD6 | FAAH,; also recorded: ABHD6 | FAAH,; also recorded: MAGL,; also recorded: ABHD6 | FAAH,; also recorded: MAGL,; also recorded: ABHD6
0 | 0 | 50 | 75 | 0 | 0 | 75 | 90 | CC(C)(C)OC(=O)N1CCN2C(=O)N(OC(=O)N3CCN(CCc4ccccc4)CC3)C(=O)C2C1 (stereo not drawn) [Compound 17, tert-butyl 1,3-dioxo-2-(4-phenethylpiperazine-1-carbonyloxy)hexahydroimidazo[1,5-a]pyrazine-7(1H)-carboxylate] | ABHD6 | ABHD6 | ABHD6 | FAAH,; also recorded: ABHD12,; also recorded: ABHD6
– | 75 | 100 | 100 | – | 75 | 100 | 100 | CN(C)c1ccc(C(=O)N2CCN3C(=O)N(OC(=O)N4CCC(CCc5ccc(Cl)cc5)CC4)C(=O)C3C2)cc1 (stereo not drawn) [Compound 10, 7-(4-(dimethylamino)benzoyl)-1,3-dioxohexahydroimidazo[1,5-a]pyrazin-2(3H)-yl4-(4-chlorophenethyl)piperidine-1-carboxylate] | – | – | – | –
– | 90 | 100 | 100 | – | 90 | 100 | 100 | O=C(ON1C(=O)C2CN(C(=O)c3ccc(F)c([N+](=O)[O-])c3)CCN2C1=O)N1CCC(CCc2ccc(Cl)cc2)CC1 (stereo not drawn) [Compound 9, 7-(4-fluoro-3-nitrobenzoyl)-1,3-dioxohexahydroimidazo[1,5-a]pyrazin-2(3H)-yl 4-(4-chlorophenethyl)piperidine-1-carboxylate] | – | ABHD6 | FAAH,; also recorded: ABHD12,; also recorded: ABHD6 | FAAH,; also recorded: ABHD12,; also recorded: MAGL,; also recorded: ABHD6
– | 90 | 100 | 100 | – | 90 | 100 | 100 | COc1ccc(C(=O)N2CCN3C(=O)N(OC(=O)N4CCC(CCc5ccc(Cl)cc5)CC4)C(=O)C3C2)cc1 (stereo not drawn) [Compound 11, 7-(4-methoxybenzoyl)-1,3-dioxohexahydroimidazo[1,5-a]pyrazin-2(3H)-yl 4-(4-chlorophenethyl)piperidine-1-carboxylate] | – | ABHD6 | FAAH,; also recorded: ABHD12,; also recorded: MAGL,; also recorded: ABHD6 | FAAH,; also recorded: ABHD12,; also recorded: MAGL,; also recorded: ABHD6

SMILES | inhibition at 0.1 µM (LYPLA2) [%] | inhibition at 1 µM (LYPLA2) [%] | inhibition at 10 µM (LYPLA2) [%] | inhibition at 100 µM (LYPLA2) [%] | inhibition at 0.1 µM (LYPLA1) [%] | inhibition at 1 µM (LYPLA1) [%] | inhibition at 10 µM (LYPLA1) [%] | inhibition at 100 µM (LYPLA1) [%] | Anti-target(s) 0.1 μM [1] | Anti-target(s) 1 μM [1] | Anti-target(s) 10 μM [1] | Anti-target(s) 100 μM [1]
COC(=O)C1CCN(C(=O)ON2C(=O)C3CN(C(=O)OC(C)(C)C)CCN3C2=O)CC1 (stereo not drawn) [Compound 15, 1-(7-(tert-butoxycarbonyl)-1,3-dioxohexahydroimidazo[1,5-a]pyrazin-2(3H)-yl) 4-methyl piperidine-1,4-dicarboxylate] | 0 | 0 | 0 | 25 | 0 | 0 | 0 | 25 | ABHD6 | ABHD6 | ABHD6 | ABHD6
CC(C)(C)OC(=O)N1CCN2C(=O)N(OC(=O)N3CCOCC3Cc3ccccc3)C(=O)C2C1 (stereo not drawn) [Compound 16, 7-(tert-butoxycarbonyl)-1,3-dioxohexahydroimidazo[1,5-a]pyrazin-2(3H)-yl 3-benzylmorpholine-4-carboxylate] | 0 | 0 | 0 | 0 | 0 | 0 | 0 | 0 | none | none | ABHD6 | ABHD6
